# According to patent publication US11065266B2, “Method of treating melanoma using an inhibitor of an atypical protein kinase C” (UNIVERSITY OF SOUTH FLORIDA, priority 2016, dated 2021):
# Experiments:
# PKM-ζ = target: T1, PKM-ζ (Homo sapiens, UniProt Q05513); assay: PKC activity assay (phosphorylation of myelin basic protein); type: biochemical
# T1 construct: proteolytic cleavage of N-regulatory domain and the C-terminal catalytic domain of PKC-ζ
# T1 sequence (Q05513 1-409 isoform Q05513-2): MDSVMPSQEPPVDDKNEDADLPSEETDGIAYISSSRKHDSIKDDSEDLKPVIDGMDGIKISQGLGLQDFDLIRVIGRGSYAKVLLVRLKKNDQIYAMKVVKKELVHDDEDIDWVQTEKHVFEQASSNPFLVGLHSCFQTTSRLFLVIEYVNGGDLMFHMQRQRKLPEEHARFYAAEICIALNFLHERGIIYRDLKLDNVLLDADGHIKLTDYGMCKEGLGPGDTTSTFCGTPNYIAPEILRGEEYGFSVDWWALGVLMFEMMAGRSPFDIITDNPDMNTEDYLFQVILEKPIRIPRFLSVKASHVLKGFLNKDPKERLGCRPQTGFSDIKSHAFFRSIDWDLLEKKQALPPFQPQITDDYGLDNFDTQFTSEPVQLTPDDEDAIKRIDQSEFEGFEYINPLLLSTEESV
# Method: (§1) PKC activity assay was conducted by monitoring the phosphorylation of myelin basic protein (MBP), a known substrate for PKCs. The detailed procedure was performed as described in Ling, D. S. F. et al. (2002) for PKC-ι and PKM-ζ [37].
# (§2) PKC activity assay was performed by suspending 0.5 μg of PKC-ζ and PKC-ι separately in 200 μL of PKC kinase buffer to test the ability of PKC-ζ and PKC-ι of phosphorylating and immunoprecipitating HSF-1 of the SK-MEL-2 cells and PCS-200-013 cells. The PKC kinase buffer composition was 20 mM Tris-HCL (pH of 7.5), 6 mM Magnesium acetate, phosphotidylserine ([…], 20 μL of 10 mg/mL solution), ATP (0.0045 mg/mL) and also the desired inhibitors, wherever appropriate (ICA-1, ACPD, DNDA and ζ-Stat). The inhibitor was used in two different concentrations as 1 μM and 0.5 μM. The reaction was terminated after incubation for 5 minutes at 30° C. by addition of sample loading buffer. Samples were then separated by PAGE and immunoblotted against anti-PKC antibodies (either PKC-ι or PKC-ζ) and against phosphospecific HSF-1 antibodies. Samples were also probed against anti-HSF-1 antibody to determine that the protein immunoprecipitaed was HSF-1. The signal was visualized using enhanced chemiluminescence.
# (§3) The activity of DNDA (FIG. 2) was determined for a series of concentrations (0-20 μM) using recombinant active PKC-ι or PKM-ζ in the presence of MBP (5 μg). The maximum inhibition of PKC-ζ was 40% and reached at 2 (P≤0.05). Inhibition remained the same upon increasing the concentration PKM-ζ is an active form of PKC-ζ found in human brain due to proteolytic cleavage of N-regulatory domain and the C-terminal catalytic domain of PKC-ζ [27-29].
# recombinant active PKC-ι = target: T2, recombinant active PKC-ι (Homo sapiens, UniProt P41743); assay: as above; type: biochemical
# T2 sequence (P41743 1-596): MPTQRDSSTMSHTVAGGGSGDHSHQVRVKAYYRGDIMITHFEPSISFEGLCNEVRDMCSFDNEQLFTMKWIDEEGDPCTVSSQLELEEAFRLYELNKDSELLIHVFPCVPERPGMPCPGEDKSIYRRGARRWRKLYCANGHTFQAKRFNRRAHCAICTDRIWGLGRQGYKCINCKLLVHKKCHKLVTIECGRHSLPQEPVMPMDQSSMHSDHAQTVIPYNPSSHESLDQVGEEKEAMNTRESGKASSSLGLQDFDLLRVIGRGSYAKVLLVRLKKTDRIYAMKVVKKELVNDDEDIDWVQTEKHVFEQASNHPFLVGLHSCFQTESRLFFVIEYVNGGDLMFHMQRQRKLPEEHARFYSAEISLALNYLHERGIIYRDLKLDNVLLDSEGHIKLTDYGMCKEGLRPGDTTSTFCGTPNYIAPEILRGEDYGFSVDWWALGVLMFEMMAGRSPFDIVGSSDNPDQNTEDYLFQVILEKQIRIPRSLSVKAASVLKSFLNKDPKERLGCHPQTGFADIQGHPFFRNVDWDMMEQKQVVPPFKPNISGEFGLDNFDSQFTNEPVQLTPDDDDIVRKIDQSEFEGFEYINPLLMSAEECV
# Method: as §1, §2, §3
# MeWo cells [1] = assay: Wound healing assay; type: cell-based, human; settings: 2.5 μM, day 3 or 4, p≤0.01
# Method: For the wound-healing assay, melanoma cells were seeded into 35 mm dishes in 6-well-plates. After the cells had reached 100% confluency, the wound-healing assay was performed with a sterile pipette tip (1-10 μL pipette tip) by making a scratch through the confluent monolayer. Subsequently, the cells were washed with DPBS and fresh medium (EMEM) was added to each well and the desired amount of inhibitor was added in order to achieve the final concentrations of 50 nM, 100 nM, 200 nM, 500 nM and 1 μM against the control. Cells were cultured for 48 h. In 24 hours intervals, pictures of wound closure were taken and the percentage of wound closure was calculated in three randomly chosen fields.
# A wound healing assay was performed to investigate the effect of ACPD and DNDA on malignant melanoma cell migration in vitro. Wound healing assay is commonly used to investigate in vitro migration of cancer cells. For the wound-healing assay, melanoma cells were seeded into 35 mm dishes in 6-well-plates. […] The percentage of wound closure was calculated after 3 or 4 days.
# In one set of experiments, cells were cultured for 48 h. In 24 hours intervals, pictures of wound closure were taken and the percentage of wound closure was calculated in three randomly chosen fields. […] The areas of the scratch (wound) were calculated and compared to determine the statistical significance (FIG. 8C).
# MeWo cells [2] = assay: Western blot of protein levels; type: cell-based, human
"maximum inhibition of PKC-ζ (PKM-ζ; reached at 2 (unit not given), series 0-20 μM, MBP 5 μg) [%]","inhibition at 0.5 µM (recombinant active PKC-ι; reached at 0.5 μM, series 0-20 μM, MBP 5 μg, read-out: maximum inhibition of PKC-ι) [%]",inhibition of PKM-ζ activity (PKM-ζ; kinase activity assay),effect on PKC-ι in kinase activity assay (recombinant active PKC-ι),SMILES,wound closure (MeWo cells [1]),decrease of Bcl-2 levels (MeWo cells [2]) [%],decrease of CD44 (MeWo cells [2]) [%],decrease of Vimentin levels (MeWo cells [2]) [%],decrease of β-catenin (MeWo cells [2]) [%],increase of Caspase-3 levels (MeWo cells [2]) [%],increase of E-cadherin levels (MeWo cells [2]) [%],increase of NF-KB p65 levels (MeWo cells [2]) [%],increase of PARP levels (MeWo cells [2]) [%],increase of cleaved PARP levels (MeWo cells [2]) [%],decrease of PARP levels (MeWo cells [2]) [%]
40,~15,,,"Nc1c(S(=O)(=O)O)cc2cc(S(=O)(=O)O)ccc2c1N [DNDA, 3,4-diamino-2,7-naphthalenedisulfonic acid]",significantly reduce the wound closure,32,43,45,21,39,29,89,9,10,
,,,,"CC(=O)C1=C(O)CCC1=O [ACPD, 2-acetyl-1,3-cyclopentanedione]",significantly reduce the wound closure,25,34,38,16,17,35,69,,18,24
,,more than 50%,does not effect,"O=S(=O)(O)c1cc(O)c2c(S(=O)(=O)O)cc(S(=O)(=O)O)cc2c1 [ζ-Stat, 8-hydroxy-1,3,6-naphthalenetrisulfonic acid]",,,,,,,,,,,
